Results as given in paper PMC10102849 (Clinical cancer research : an official journal of the …, 2023).

Legend:
[1] = test system: JW23.3 cells; type: cell-based, murine; conditions: 72 hours
[2] = test system: JH-2-002 cells; type: cell-based, human; conditions: 72 hours
[3] = test system: MPNST-724 cells; type: cell-based, human; conditions: 3 days
[4] = test system: JW23.3, JH-2-002, and MPNST-724 cells; test: IncuCyte proliferation assay, range stated over three MPNST cell lines; type: cell-based; conditions: 72 h, read-out: IC50 for inhibition of cell confluence, range over cell lines

Compound	effect on percent cell confluence / proliferation [1]	effect on percent cell confluence / proliferation [2]	effect on proliferation [3]	IC50 [4]
CCS(=O)(=O)N1CC(CC#N)(n2cc(-c3ncnc4[nH]ccc34)cn2)C1 [baricitinib]	decreased cell proliferation at higher doses	decreased cell proliferation at higher doses	–	–
O=C(NOC[C@H](O)CO)c1ccc(F)c(F)c1Nc1ccc(I)cc1F [mirdametinib]	dose-dependently reduced	dose-dependently reduced	dose-dependently reduced	220 to 1220 nM
